According to US4812409A, “Hydrolyzable fluorescent substrates and analytical determinations using same” (Eastman Kodak Company, priority 1986, dated 1989):

Assays:
[1] = tested on: Klebsiella pneumoniae (ATCC 13882); assay: Detection of Klebsiella pneumoniae with β-D-xylosidase substrate, fluorescence; type: cell-based; details: for Relative Fluorescence: 37° C., ex 540 nm, em 620 nm
Protocol: (§1) Cells were prepared as follows. A β-D-xylosidase induction medium was prepared by adding the following materials in order to 350 μl of 0.1 molar sodium, potassium phosphate buffer (pH 7.0), 25 μl 5% yeast extract, 50 μl of 4% (NH4)2 HPO4 and 1% KCl, 50 μl 0.0075% MnSO4.H2 O and 0.01% FeSO4.7H2 O. This mixture was autoclaved for 30 minutes, then cooled. Just before incubation, 25 μl of 20% xylose solution and 2% MgSO4.7H2 O, which had been filter sterilized or autoclaved separately, were added. Klebsiella pneumoniae (ATCC 13882) and Enterobacter cloacae (ATCC 23355) were both grown in this medium for 18 hours at 37° C. Ten milliliters of cells were harvested by centrifugation, washed, and resuspended in 0.1 molar potassium phosphate buffer (pH 7.0). The cell concentration was adjusted to approximately 5×10^8 cells/ml (optical density 0.800 at 620 nm).
(§2) In two milliliters HA 96 well titration plates were placed 200 μl of the cell suspension. To plate 1 was added 100 μl of the substrate solution of Example 1 without surfactant (10 μg/μl N,N-dimethylformamide in 9 μl potassium phosphate buffer), to plate 2 was added the substrate solution with surfactant (10 μg/μl N,N-dimethylformamide and 200 μl TRITON X-100 surfactant in 9 μl potassium phosphate buffer).
(§3) After the substrate was added, an initial reading was taken, the plates were kept at 37° C., and additional readings were taken after 5, 10, 15, 30, and 60 minutes. The average of three replicates was used. A commercially available Dynatech Microfluor Reader, modified with an excitation filter at 540 nm, an emission filter at 620 nm, a 200-watt tungsten lamp and a heating element, was used to measure fluorescence.

[2] = tested on: Enterobacter cloacae (ATCC 23355); assay: Detection of Enterobacter cloacae with β-D-xylosidase substrate, fluorescence; type: cell-based; details: for Relative Fluorescence: 37° C., ex 540 nm, em 620 nm
Protocol: as §1, §2, §3

[3] = Millititer Plate 1, without surfactant, 0 min
[4] = Millititer Plate 1, without surfactant, 5 min
[5] = Millititer Plate 1, without surfactant, 10 min
[6] = Millititer Plate 1, without surfactant, 15 min
[7] = Millititer Plate 1, without surfactant, 30 min
[8] = Millititer Plate 1, without surfactant, 60 min
[9] = Millititer Plate 2, with TRITON X-100 surfactant, 0 min
[10] = Millititer Plate 2, with TRITON X-100 surfactant, 5 min
[11] = Millititer Plate 2, with TRITON X-100 surfactant, 10 min
[12] = Millititer Plate 2, with TRITON X-100 surfactant, 15 min
[13] = Millititer Plate 2, with TRITON X-100 surfactant, 30 min
[14] = Millititer Plate 2, with TRITON X-100 surfactant, 60 min
[15] = both substrate solutions (with and without surfactant)

O=C1C=Cc2ccc(O[C@@H]3OC[C@@H](O)[C@H](O)[C@H]3O)c3cccc1c23 [Example 1, 1-(6-Oxyphenalenone)-β-D-xylopyranose]
Relative Fluorescence [1, 3]: 500
Relative Fluorescence [1, 4]: 585
Relative Fluorescence [1, 5]: 698
Relative Fluorescence [1, 6]: 752
Relative Fluorescence [1, 7]: 1205
Relative Fluorescence [1, 8]: 1686
Relative Fluorescence [1, 9]: 557
Relative Fluorescence [1, 10]: 635
Relative Fluorescence [1, 11]: 741
Relative Fluorescence [1, 12]: 869
Relative Fluorescence [1, 13]: 1232
Relative Fluorescence [1, 14]: 1976
Time at which the microorganism can be detected [1, 15]: 15 min
Relative Fluorescence [2, 3]: 525
Relative Fluorescence [2, 4]: 684
Relative Fluorescence [2, 5]: 925
Relative Fluorescence [2, 6]: 1150
Relative Fluorescence [2, 7]: 2245
Relative Fluorescence [2, 8]: 2717
Relative Fluorescence [2, 9]: 586
Relative Fluorescence [2, 10]: 902
Relative Fluorescence [2, 11]: 1341
Relative Fluorescence [2, 12]: 1795
Relative Fluorescence [2, 13]: 2626
Relative Fluorescence [2, 14]: 3003
Time at which the microorganism can be detected [2, 15]: 15 min
